Assay results reported in US20250345458A1, “COMPLEXING AGENT SALT FORMULATIONS OF PHARMACEUTICAL COMPOUNDS AT LOW STOICHIOMETRIC RATIOS” (Bexson Biomedical, Inc., priority 2022, published 2025).
Marks after values point to notes of the source that are not given here.

Tests used:
[1] = Osmolality of API formulations (micro osmometer, triplicate); assay type: physicochemical
Method: Osmolality readings were obtained on an Advanced Instruments Advanced™ Micro Osmometer Model 3300 (Advanced Instruments, Inc. Norwood, MA, USA). Saline solutions (0.9% and 3%) were run as positive controls. Each sample was calculated as the mean from back-to-back triplicate measurements. When replicate batches were measured, data was reported as mean±SEM.
The procedure was performed on a 2 mL scale. […] Benzethonium chloride (20 μL of a 1% solution, 0.01% final concentration) was added via micropipette. The pH was adjusted to ˜7.00 with 2M sodium hydroxide, or either 1M or 2M HCl in some cases, and then the mixture was transferred to a 2 mL volumetric flask to be diluted with HPLC grade water. […]
Method 1: In a 5 mL borosilicate glass test tube which contained a Teflon-coated magnetic stir bar, Captisol®-Na+ ([…], H+ equivalents, moisture corrected) was dissolved in HPLC grade water (1.6-1.7 mL), API salt (HCl in most cases) (70 mg/mL FB equivalents) was added and the mixture was stirred until a homogenous transparent solution formed. Benzethonium chloride (20 μL of a 1% solution, giving a 0.01% final concentration) was added via micropipette. The pH was adjusted to ˜7.00 with 1M or 2M sodium hydroxide, or either 1M or 2M HCl in some cases, and then the mixture was transferred to a 2 mL volumetric flask to be diluted with HPLC grade water. […]
Benzethonium chloride (20 μL of a 1% solution, giving a 0.01% final concentration) was added via micropipette. The pH was adjusted to ˜7.00 with 1M or 2M sodium hydroxide, or either 1M or 2M HCl in some cases, and then the mixture transferred to a 2 mL volumetric flask to be diluted with HPLC grade water. […]
The solution was transferred to a 2 mL volumetric flask and diluted to the target volume with HPLC grade water. […]

[2] = pH of API formulations (pH meter); assay type: physicochemical
[3] = in water, cited from earlier work; for Reported Freebase Solubility: vendor or literature value
[4] = API-CapAcid salts prepared in ethanol, then 70 mg of solid added to 1 mL water (visual); assay type: physicochemical; conditions: for dissolution of 70 mg of the ethanol-prepared API-CapAcid solid in 1 mL water: visual, vortexed
Method: The resulting solid API-CapAcid salts were then obtained as solids by evaporation of the ethanol, followed by lyophilization.
In a scintillation vial, a solution of API FB (100 mg) and CapAcid (1 molar equivalent, moisture corrected) was prepared by dissolving Cap Acid in 200 proof ethanol (5 mL) and then adding the freebase API. […] Whether or not the freebase dissolved after the second addition of ethanol, the initial pH, prior to titration, was recorded. The vial was then wrapped in foil and left uncovered in the hood to allow the ethanol to evaporate. After the ethanol fully evaporated, a small amount of HPLC grade water (3-5 mL) was added to each to see if the product would dissolve or become a suspension in the water. The solution was then lyophilized to remove the water. The product was ground with a stir rod and 70±0.1 mg was added to 1 mL of water to see if it would dissolve.

[5] = Dissolution of API freebase in aqueous CapAcid / Captisol solutions at defined API:CapAcid ratios, visual inspection and NaOH titration
[6] = API FB CapAcid formulation, 70 mg/mL API FB, 1.1 equivalents CapAcid (H^+ equivalents), after titration
[7] = API Salt (70 mg/mL API Salt in FB equivalent) in water
[8] = API salt Captisol®-Na^+ formulation, 70 mg/mL FB equivalent, 1.1 equivalents Captisol®-Na^+
[9] = CapAcid-API Freebase Formulation (70 mg/mL API FB, 1.1 molar equivalent CapAcid), after pH titration with NaOH or HCl
[10] = Captisol®-Na^+ formulation, 70 mg/mL API Salt in FB equivalent, 1.1 molar equivalent Captisol®-Na^+
[11] = 70 mg/mL API FB, 1.1 equivalents CapAcid, before NaOH/HCl
[12] = 70 mg/mL API salt (FB equivalent), 1.1 equivalents Captisol®-Na^+, before NaOH
[13] = CapAcid-API Freebase Formulation (70 mg/mL API FB, 1.1 molar equivalent CapAcid), final pH after titration and dilution
[14] = Captisol®-Na^+ formulation, 70 mg/mL API Salt in FB equivalent, 1.1 molar equivalent Captisol®-Na^+, final pH
[15] = API salt 70 mg/mL (FB equivalents) in water

SMILES: NC12CC3CC(CC(C3)C1)C2 [1-Amantadine]
- Osmolality [1, 6]: 411.6 mOsmol/kg
- Osmolality [1, 7]: 832 mOsm/kg
- Osmolality [1, 8]: 1,446.7 mOsmol/kg
- Osmolality [1, 9]: 411.6 mOsm/kg
- Osmolality [1, 10]: 1,446.7 mOsm/kg
- pH of the solution prior to titration [2, 11]: 1.43
- pH of the solution prior to titration [2, 12]: 3.93
- pH [2, 7]: 5.67
- pH [2, 13]: 6.97
- pH [2, 14]: 6.99

SMILES: NC1C2CC3CC(C2)CC1C3 (stereo not shown) [2-Amantadine]
- Osmolality [1, 6]: 435.7 mOsmol/kg
- Osmolality [1, 7]: 826.7 mOsm/kg
- Osmolality [1, 8]: 1,492.7 mOsmol/kg
- Osmolality [1, 9]: 435.7 mOsm/kg
- Osmolality [1, 10]: 1492.7 mOsm/kg
- pH of the solution prior to titration [2, 11]: 1.29
- pH of the solution prior to titration [2, 12]: 5.63
- pH [2, 7]: 6.94
- pH [2, 13]: 7.06
- pH [2, 14]: 7.01

SMILES: Nc1ccncc1N [Amifampridine, Pyridine-3,4-diamine]
- Reported Freebase Solubility [3]: 7000 µg/mL
- Osmolality ([1]; 70 mg/mL API FB and 1 equivalent of 6M HCl in water): 740.3 mOsmol/kg
- Osmolality ([1]; 70 mg/mL API FB, 1 equivalent of 6M HCl, 1.1 equivalents Captisol®-Na^+): 1023.3 mOsmol/kg
- Osmolality ([1]; *70 mg/mL API FB + molar equivalent of 6M HCl in water): 740.3*^ mOsm/kg
- Osmolality [1, 6]: 532.7 mOsmol/kg
- Osmolality [1, 9]: 532.7** mOsm/kg
- Osmolality ([1]; Captisol®-Na^+ formulation, *70 mg/mL API FB + 6M HCl, 1.1 molar equivalent Captisol®-Na^+): 1,023.3* mOsm/kg
- pH of the solution prior to titration ([2]; 70 mg/mL API FB, 1 equivalent 6M HCl, 1.1 equivalents Captisol®-Na^+, before NaOH/HCl): 9.27
- pH of the solution prior to titration [2, 11]: 9.19

SMILES: COc1ccccc1OCCNCC(O)COc1cccc2[nH]c3ccccc3c12 (stereo not shown) [Carvedilol]
- pH of the ethanol solution prior to titration ([4]; API FB 100 mg + CapAcid 1 molar equivalent (H^+) in 10 mL 200 proof ethanol): 0.82
- dissolution of 70 mg of the ethanol-prepared API-CapAcid solid in 1 mL water ([4]; Method 2 solid): insoluble solution
- dissolution of 70 mg of the ethanol-prepared API-CapAcid solid in 1 mL water [4]: insoluble solution

SMILES: CC[C@H](C)C[C@H](C)CCCCCCCCC(=O)N[C@H]1C[C@@H](O)[C@@H](NCCN)NC(=O)[C@@H]2[C@@H](O)CCN2C(=O)[C@H]([C@H](O)CCN)NC(=O)[C@H]([C@H](O)[C@@H](O)c2ccc(O)cc2)NC(=O)[C@@H]2C[C@@H](O)CN2C(=O)[C@H]([C@@H](C)O)NC1=O [Caspofungin]
- Osmolality [1, 6]: 59 mOsmol/kg
- Osmolality [1, 7]: 94 mOsm/kg
- Osmolality [1, 15]: 94 mOsmol/kg
- Osmolality [1, 8]: 209.3 mOsmol/kg
- Osmolality [1, 9]: 59** mOsm/kg
- Osmolality [1, 10]: 209.3 mOsm/kg
- pH of the solution prior to titration [2, 11]: 7.78
- pH of the solution prior to titration [2, 12]: 6.13
- pH [2, 7]: 5.86
- pH [2, 14]: 7.04

SMILES: COc1ccc2c(c1)[C@]13CCCC[C@@H]1[C@H](C2)N(C)CC3 [DXM]
- solubility as stoichiometric (6.5:1) CapAcid salt compared with known API salts, in words ([5]; 70 mg/mL formulations): dramatic improvement in solubility

SMILES: COC(=O)[C@@H](N)Cc1ccc(O)c(O)c1 [Melevodopa]
- Osmolality [1, 6]: 605.7 mOsmol/kg
- Osmolality [1, 9]: 605.7 mOsm/kg
- pH of the solution prior to titration [2, 11]: 1.22
- pH [2, 13]: 6.97

SMILES: Cc1ncc2n1-c1ccc(Cl)cc1C(c1ccccc1F)=NC2 [Midazolam]
- highest achievable pH without precipitation of freebase solids ([5]; 3:1 ratio of API to CapAcid (relative to the cyclodextrin), 300.8 mg FB in 10 mL water): 3.15
- dissolution by visual inspection ([5]; 3:1 ratio of API to CapAcid (relative to the cyclodextrin), 10 mL water): transparent colorless solution
- dissolution by visual inspection ([5]; CapAcid 1 molar equivalent relative to H^+, 300.8 mg FB in 10 mL water, 30 minutes): cloudy suggesting incomplete dissolution
- final pH of the solution ([2]; 3:1 ratio, after 0.5 M HCl redissolved the solid): 2.86
- pH when solids began to crash out ([2]; 3:1 ratio, after 360 μL total 2M NaOH): 2.92

SMILES: C=CCN1CC[C@]23c4c5ccc(O)c4O[C@H]2C(=O)CC[C@@]3(O)[C@H]1C5 [Naloxone]
- Reported Freebase Solubility [3]: 1415 µg/mL
- Reported Salt Solubility [3]: 50 mg/mL^13
- pH past which the freebase crashed out ([5]; 70 mg/mL FB, 1.1 equivalents CapAcid): > 6.00
- Osmolality [1, 7]: 279 mOsm/kg
- Osmolality [1, 15]: 279 mOsmol/kg
- Osmolality [1, 8]: 531.7 mOsmol/kg
- Osmolality [1, 9]: 139.7 mOsm/kg
- Osmolality [1, 10]: 531.7 mOsm/kg
- pH [2, 7]: 4.39
- pH [2, 13]: 6.01
- pH [2, 14]: 5.98

SMILES: CCC(CC)COC(=O)[C@H](C)N[P@](=O)(OC[C@H]1O[C@@](C#N)(c2ccc3c(N)ncnn23)[C@H](O)[C@@H]1O)Oc1ccccc1 [Remdesivir]
- Reported Freebase Solubility [3]: Insoluble^15
